Reference: ChEMBL document CHEMBL1121709, “Importance of the aromatic ring in adrenergic amines. 6. Nonaromatic analogues of phenylethanolamine as inhibitors of phenylethanolamine N-methyltransferase: role of pi-electronic and steric interactions” (J Med Chem, 1981)

biological target: T1, Phenylethanolamine N-methyltransferase (Bos taurus, UniProt P10938); experiment: The compound was measured for the 50% inhibition of phenylethanolamine N-methyl-transferase
T1 sequence (P10938 whole entry): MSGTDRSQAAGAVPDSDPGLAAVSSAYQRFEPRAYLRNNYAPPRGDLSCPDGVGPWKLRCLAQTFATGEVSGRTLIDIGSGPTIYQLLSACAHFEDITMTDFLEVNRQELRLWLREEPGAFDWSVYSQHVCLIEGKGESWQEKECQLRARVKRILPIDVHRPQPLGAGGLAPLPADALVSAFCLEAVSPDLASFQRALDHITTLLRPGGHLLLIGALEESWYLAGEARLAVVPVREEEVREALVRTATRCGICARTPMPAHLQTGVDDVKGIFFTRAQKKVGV

Row | IC50 [µM] | SMILES
1 | 195 | NCC(O)C12CC3C[C@H](C1)C[C@H](C3)C2 (stereo partly drawn)
2 | 8 | NCC(O)C1CCCCCCC1 (stereo not drawn)
3 | 454 | NCC(O)C1CC2C=CC1C2 (stereo in doubt; 9)
4 | 1100 | NCC(O)C1CC2C=CC1C2 (stereo in doubt; 10)
5 | 193 | NCC(O)C1CC2CCC1C2 (stereo in doubt; 12)
6 | 475 | NCC(O)C1CC2CCC1C2 (stereo in doubt; 13)

biological target: T1, Phenylethanolamine N-methyltransferase; experiment: The compound was measured for the 50% inhibition of phenylethanolamine N-methyl-transferase; 50% inhibition was not achieved at 10e-3 M

Row | IC50 [µM] | SMILES
7 | > 1000 | NCC(O)C12C=CC(CC1)C2 (stereo not drawn)
8 | > 1000 | NCC(O)C12CCC(CC1)C2 (stereo not drawn)
